The nature of series [1]: Picosecond time-resolved fluorescence spectroscopy (fluorescence lifetime). Type of series: physicochemical. As to conditions: 25 μM in THF, emission 400 nm. As to the method:
Picosecond time-resolved fluorescence measurements are recorded according to the single photon counting technique [Lakowicz, 1983 p 52-93, 112-153, 156-185]. An Ar^+-pumped Ti:Sapphire laser (model MIRA 900, Coherent, Santa Clara, USA) provided under mode-locked conditions ultrashort pulses (FWHM=150 fs) with a frequency of 75 MHz. To reduce the repetition rate to 4.7 MHz, a pulse picker (model 9200, Coherent, Santa Clara, USA) is inserted into the beam. […] Fluorescence photons are collected in a Spex 1681 single grating monochromator (Spex, Edison, USA) and detected with the Hamamatsu R3809U microchannel plate (Hamamatsu, Shimokanzo, Japan). […] The voltage values which correspond to the time passed between excitation and emission of a fluorescence photon in a single experiment are stored in the Spectrum Master 921 (Ortec, Oak Ridge, USA) which is connected to the multichannel emulation program Maestro (Ortec, Oak Ridge, USA). […]
where A represents the background noise of the experiment, bi represent the pre-exponential terms of the according fluorescence lifetimes τi, and δt is an optional temporal shift term to compensate for shifts of the instrument response. […]
The time resolved decay of 4e is determined at a concentration of 25 μM in THF. Excitation is from 350 nm 380 nm, fluorescence emission is detected at 400 nm with slit widths set to 0.5 nm. […]

Series [2] in a line: Quantum yield determination with chininsulfate as standard. Type of series: physicochemical. As to conditions: 25 μM in THF. As to the method:
The quantum yield of 4e is determined using chininsulfate as a standard [Melhuish, 1961].
The point of intersection between the UV spectra of 4e and chininsulfate (CS) is determined by measurements of a solution of the two substances on a Cary 1E spectrophotometer. Concentrations were 25 μM in THF for 4e and 50 mM in 1N H2SO4 for CS. Spectra are recorded from 260 nm to 380 nm using a quartz cuvette with an optical pathlength of 10 mm, and blank corrected by subtracting the solvent absorption. The point of intersection of the two resulting UV spectra is determined to be at 348.3 nm, corresponding to 352.8 nm on the SLM-8000 C fluorometer due to monochromator shifts. The fluorescence emission spectra of 4e and CS are recorded using the same solutions as for the UV-measurements in single photon counting mode. Lamp intensity changes are corrected with a quantum counter in the reference channel, measured in slow mode. Gain is set at x 100, high voltage applied was 830 V. Integration time was 0.5 seconds.
Spectral bandwidths are set at 1 nm for excitation, 2 nm and 4 nm for emission.
For the recording of the emission spectra, excitation is set to 352.8 and emission is monitored from 360 to 550 nm for IAE and 360 to 650 nm for CS.

The nature of series [3]: Steady-state fluorescence spectroscopy (excitation and emission spectra). Type of series: physicochemical. As to conditions: for Emission range in parenthesis / Emission λmax / Excitation range in parenthesis / Excitation λmax: acetonitrile/2% DMSO. The procedure: Steady-state fluorescence measurements are performed on a SLM 8000C spectro-fluorometer equipped with JD490 photomultipliers and a 450 W Xenon Arclamp (SLM Instruments, Urbana, Ill.).
[…] Spectral bandwidths are set to 1 and 4 nm for excitation and emission, respectively. Spectra are recorded in single photon counting mode. Changes in lamp intensity are corrected with a quantum counter in the reference channel, measured in slow mode. Gain is set to x 100 with a high voltage (HV) of 640 V. Integration time is 2 seconds. For excitation spectra measurements, the emission wavelength is set to 397 nm and the sample is excited from 200 to 400 nm. For recording emission spectra, the sample is excited at 342 nm and the emission is recorded from 350 to 540 nm. The data are averaged over two scans.

The nature of series [4]: UV-Vis absorption spectroscopy. Type of series: physicochemical. As to conditions: for Absorption λmax / ε (at absorption λmax): acetonitrile/2% DMSO. The procedure: UV-Vis absorption spectroscopy is performed on a Cary 1E spectrophotometer. […]
[…] […] From each stock solution, 5 dilutions with concentrations of 2.5 μm, 10 μM, 17 μM, 25 μm and 35 μM are made. UV-spectra of each dilution are recorded from 200 to 400 nm, using a quarz cuvette with a pathlength of 1 cm. […] A linear fit is carried out for each series of measurements. The extinction coefficient ε at 337 nm is given by the slope of the linear regression.

Series [5] in a line: Calculation of R0 (Förster distance) between 4e and NATA. Type of series: physicochemical. As to conditions: 4e acceptor, NATA donor, THF. The procedure:
The emission spectrum of NATA is measured at a concentration of 15 μM in THF, using a 750 μl quartz cuvette with an optical pathlength of 10 mm. Measuring mode is single photon counting. Changes in lamp intensity are corrected using a quantum counter in the reference channel. The gain is set at x 100, the high voltage applied was 640 V and the integration time is 2 seconds. The fluorescence emission is corrected for photometric accuracy of the system by multiplication with correction factors obtained by standard lamp calibration. Slit widths are set at 1 nm and 4 nm for excitation and emission, respectively. […] R0 is calculated using the formula R0=(9.97×10^3)(Jκ^2η^-4 θNATA)^1/6 Å where κ^2 is an orientation factor of the relative orientation in space of the transition dipoles of the donor and acceptor chromophores. […] J is the spectral overlap integral which can be approximated from […](λ)λ^4Δλ (2) where FNATA is the corrected fluorescence emission of the donor, the sum normalized to unity, ε4e is the extinction coefficient of the acceptor at wavelength λ, and DS is the incremental detection range.

Series [6] addresses T1, BODIPY-FL labelled avidin (Gallus gallus, UniProt P02701).
T1 construct: BODIPY FL (chemical fluorescent label, about 3.3 per avidin); purchased Molecular Probes (Eugene, Oreg.) A-2641
Kind of series: Fluorescence anisotropy with BODIPY-FL labelled avidin. As to conditions: 50 nM conjugate, 1 μM BODIPY-FL labelled avidin. Type of series: binding. The procedure:
(§1) For solubility reasons, 4e is spectroscopically characterized in THF. All complexation reactions and fluorescence resonance energy transfer measurements are performed in PBS/5% DMSO at 25° C., unless indicated otherwise.
(§2) Fluorescence anisotropy is calculated according to [Lakowicz, 1983].
(§3) Spectral bandwidths are set to 4 and 8 nm for excitation and emission, respectively, with 5 seconds integration time. For calculation of fluorescence anisotropy ten data points are averaged.
(§4) This value is indicative for a small monomeric molecule rotating free in solution. […] When 1 μM of the BODIPY-FL labelled avidin was used as substrate the r-value was 0.100. This reduced change in anisotropy probably reflects the lower affinity of the BODIPY-FL labelled avidin as compared to the unlabelled material.
In general terms: Fluorescence polarisation rises when a labelled molecule tumbles more slowly, as on binding a larger partner.

In the next series the target is T2, avidin-BODIPY-FL (Gallus gallus, UniProt P02701).
T2 construct: BODIPY FL (chemical fluorescent label, about 3.3 per avidin); purchased Molecular Probes (Eugene, Oreg.) A-2641
T2 sequence (P02701 25-152): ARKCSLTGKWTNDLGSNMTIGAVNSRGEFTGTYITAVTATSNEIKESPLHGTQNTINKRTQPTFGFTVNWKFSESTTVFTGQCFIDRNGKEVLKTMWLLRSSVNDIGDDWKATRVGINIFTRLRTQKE
The experiment in a line: FRET / quenching with avidin-BODIPY-FL (AIDA donor, BODIPY-FL acceptor). Type of series: binding. As to conditions: standard definition, stated as not valid here. As to the method: as §1
(§5) Spectral bandwidths are set to 8 and 16 nm for excitation and emission, respectively. Measurements are performed at 25° C. in a 750 μL quartz cuvette (10 mm optical pathlength) without stirring after initial mixing. A concentration of 50 nM of 9 or 11 is used for complexation with 1 μM of (fluorescent) avidin. […] All titrations are performed in magic angle setting, with the emission wavelength set to […] in experiments where the indazole is the acceptor, and with an excitation spectrum recorded from 250 nm to 360 nm. In experiments where indazole is used as donor and Lucifer Yellow or BODIPY FL is the acceptor, the excitation wavelength is set to 338 nm or 325 nm. The fluorescence emission is collected between 360 nm and 700 nm. The spectra are corrected for Raman scattering from the PBS solution, for dilution, and for inner filter effects due to protein additions, The signal is adjusted for lamp intensity changes by ratio mode detection with a Rhodamine B quantum counter in the reference channel. A WG 360 emission cutoff filter is used for straylight reduction. Data are collected in 2 nm increments with 1 second integration time.
In these experiments 11 was used as donor and BODIPY-FL as acceptor. At an excitation wavelength of 338 nm the emission of 11 between 360 nm and 516 nm is strongly quenched by approximately 80% in the complexed form. The standard definition for energy transfer efficiency, E=1−Fda/Fd, would result in E≅0.8. […] The approximately 80% reduction in signal intensity of 11 can be caused either by FRET or from local quenching of the fluorescence of 11 mainly by ground state interactions. […] Due to the broad fluorescence emission of 11 in water the detection wavelength can be shifted up to 500 nm which is at lower energy than most background fluorescence signals from small chemical compounds.

Series [7] deals with T3, avidin (Gallus gallus, UniProt P02701).
T3 construct: purchased Molecular Probes (Eugene, Oreg.) A-2767
T3 sequence (P02701 25-152): as above
Kind of series: Fluorescence anisotropy as signal for binding to avidin. The procedure: as §1, §2, §3, §4

Series [8] deals with T3, avidin. Kind of series: FRET / quenching with unlabelled avidin (tryptophan donor, AIDA acceptor). Type of series: binding. The procedure: as §1, §5
An emission wavelength at 480 nm was chosen because the tryptophan fluorescence of avidin had almost reached the baseline level at this emission energy, resulting in only minor avidin fluorescence contribution between 250 and 370 nm. […] This quenching effect can be attributed to all radiative and non-radiative processes occurring to 11 in the vicinity of the tryptophans in the binding cleft. Corresponding to the ratio of the negative and positive areas under the fluorescence difference curve (black), 62% of this total quenching effect is fluorescence resonance energy transfer. From 250 to 305 nm the enhancement of the tryptophan and tyrosine fluorescence intensity is 72% based on the sum of 11 and avidin.

Results on two molecules are retold here after patent US20010005752A1, “Fluorescent dyes (AIDA) for solid phase and solution phase screening” (priority 1998, published 2001).

T1 sequence (P02701 25-152): as above

As to `C=CCOC(=O)c1ccc(-c2nn(-c3ccc(C(=O)O)cc3)c3ccccc23)cc1` [4e, 4-[3-(4-allyloxycarbonylphenyl)-1H-indazol-1-yl]-benzoic acid], in series [1], the “fluorescence lifetime (mono-exponential decay)” value is recorded as 1.055±0.117 nsec and the “relative amplitude of lifetime component” value is given as 99.73%. In series [2], this molecule registered a quantum yield of 0.591. In series [3], the “photophysical and photochemical stability” value was “photophysically and photochemically stable”; the “Emission range in parenthesis” value is reported as 360-480 nm; the “Emission λmax” value worked out at 398 nm; the “Excitation range in parenthesis” value was 310-360 nm. Moreover, the “Excitation λmax” value in series [3] is 337 nm. Also, the “maximal emission intensity (wavelength)” value in [3] (1 μM in THF, excitation at 342 nm) is given as 403 nm. In series [3] (THF), the Stoke shift result is recorded as “about 60 nm”. The molecule further yielded an absorption maximum in [4] (THF) of 342 nm. Further, the “absorption coefficient ε at 337 nm” value in series [4] (THF, 337 nm) turned out to be 29926 M⁻¹ cm⁻¹. In series [4], the “Absorption λmax” value is 335 nm and the “ε (at absorption λmax)” value is 34134 M⁻¹ cm⁻¹. Besides, the “R0 (Förster distance) of the dye pair with NATA” value in [5] is 25.2 - 26.3 Å.
With `C=CCOC(=O)c1ccc(-c2nn(-c3ccc(C(=O)N[C@@H](CCCCNC(=O)CCCCC4SCC5NC(=O)NC54)C(=O)O)cc3)c3ccccc23)cc1` (some centres unmarked) [compound 11], in series [6], the “fluorescence anisotropy (r-value) with BODIPY-FL labelled avidin” value is reported as 0.100. In addition, the “energy transfer efficiency E=1−Fda/Fd” value on avidin-BODIPY-FL is about 0.8. In series [3] (50 nM, PBS/5% DMSO, excitation 338 nm), this molecule came in with an emission maximum of 438 nm. The “emission intensity at 500 nm” value in [3] (PBS buffer, 500 nm) is given as “about 50%”. Besides, in [3], the “Emission range in parenthesis” value is given as 370-480 nm, the “Emission λmax” value worked out at 397 nm, the “Excitation range in parenthesis” value was 310-360 nm and the “Excitation λmax” value is recorded as 336 nm. Further, on avidin [7] (50 nM conjugate, 1 μM avidin), the “change of anisotropy on binding to avidin” value is “+444%” and the “fluorescence anisotropy bound to avidin” value came to 0.151. The “basic fluorescence anisotropy (free conjugate)” value on avidin [7] (50 nM, excitation 338 nm, emission 438 nm, no avidin) was found to be 0.034. Moreover, in series [4], the “Absorption λmax” value was 334 nm and the “ε (at absorption λmax)” value came to 34349 M⁻¹ cm⁻¹. Further, the “quenching of conjugate fluorescence by complexation in the avidin binding site” value at avidin [8] (50 nM conjugate, 1 μM unlabelled avidin, emission 480 nm) is listed as “about 25.5%”. The “enhancement of tryptophan and tyrosine fluorescence intensity” value at avidin [8] (250 to 305 nm, based on the sum of 11 and avidin) was 72%. At avidin [8] (detected at 480 nm), the “tryptophan to conjugate energy transfer relative to free avidin plus 11” value was 70%. At avidin [8] (ratio of negative and positive areas under difference curve), the “part of total quenching effect that is fluorescence resonance energy transfer” value is reported as 62%.
